Test system: NOMO1
Experiment: cell viability relative to DMSO control; higher = less cytotoxic
Conditions: 48 h
How it was run: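 Library compounds in DMSO were pin-dosed into 1536-well plates (5 μl) holding NOMO1 or SEM (500 cells/well) or P12-Ichikawa (1000 cells/well) leukemia cells, across an 11-point threefold series of 47 μM to 0.79 nM. Each cell line had been adapted for at least four passages in each medium. CellTiter-Glo One luminescence was read after 48 h at 37°C. Viability is the per-plate percentage relative to DMSO wells, with cell-free wells as background.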

[1] = HPLM + 10% dialyzed FBS, 0.000781 µM
[2] = HPLM + 10% dialyzed FBS, 0.00234 µM
[3] = HPLM + 10% dialyzed FBS, 0.00702 µM
[4] = HPLM + 10% dialyzed FBS, 0.0211 µM
[5] = HPLM + 10% dialyzed FBS, 0.0632 µM
[6] = HPLM + 10% dialyzed FBS, 0.19 µM
[7] = HPLM + 10% dialyzed FBS, 0.569 µM
[8] = HPLM + 10% dialyzed FBS, 1.71 µM
[9] = HPLM + 10% dialyzed FBS, 5.12 µM
[10] = HPLM + 10% dialyzed FBS, 15.4 µM
[11] = HPLM + 10% dialyzed FBS, 46.1 µM
[12] = RPMI 5 mM glucose + 10% FBS, 0.000781 µM
[13] = RPMI 5 mM glucose + 10% FBS, 0.00234 µM
[14] = RPMI 5 mM glucose + 10% FBS, 0.00702 µM
[15] = RPMI 5 mM glucose + 10% FBS, 0.0211 µM
[16] = RPMI 5 mM glucose + 10% FBS, 0.0632 µM
[17] = RPMI 5 mM glucose + 10% FBS, 0.19 µM
[18] = RPMI 5 mM glucose + 10% FBS, 0.569 µM
[19] = RPMI 5 mM glucose + 10% FBS, 1.71 µM
[20] = RPMI 5 mM glucose + 10% FBS, 5.12 µM
[21] = RPMI 5 mM glucose + 10% FBS, 15.4 µM
[22] = RPMI 5 mM glucose + 10% FBS, 46.1 µM
[23] = RPMI 5 mM glucose + 10% dialyzed FBS, 0.000781 µM
[24] = RPMI 5 mM glucose + 10% dialyzed FBS, 0.00234 µM
[25] = RPMI 5 mM glucose + 10% dialyzed FBS, 0.00702 µM
[26] = RPMI 5 mM glucose + 10% dialyzed FBS, 0.0211 µM
[27] = RPMI 5 mM glucose + 10% dialyzed FBS, 0.0632 µM
[28] = RPMI 5 mM glucose + 10% dialyzed FBS, 0.19 µM
[29] = RPMI 5 mM glucose + 10% dialyzed FBS, 0.569 µM
[30] = RPMI 5 mM glucose + 10% dialyzed FBS, 1.71 µM
[31] = RPMI 5 mM glucose + 10% dialyzed FBS, 5.12 µM
[32] = RPMI 5 mM glucose + 10% dialyzed FBS, 15.4 µM
[33] = RPMI 5 mM glucose + 10% dialyzed FBS, 46.1 µM

| SMILES | cell viability [1] [%] | cell viability [2] [%] | cell viability [3] [%] | cell viability [4] [%] | cell viability [5] [%] | cell viability [6] [%] | cell viability [7] [%] | cell viability [8] [%] | cell viability [9] [%] | cell viability [10] [%] | cell viability [11] [%] | cell viability [12] [%] | cell viability [13] [%] | cell viability [14] [%] | cell viability [15] [%] | cell viability [16] [%] | cell viability [17] [%] | cell viability [18] [%] | cell viability [19] [%] | cell viability [20] [%] | cell viability [21] [%] | cell viability [22] [%] | cell viability [23] [%] | cell viability [24] [%] | cell viability [25] [%] | cell viability [26] [%] | cell viability [27] [%] | cell viability [28] [%] | cell viability [29] [%] | cell viability [30] [%] | cell viability [31] [%] | cell viability [32] [%] | cell viability [33] [%] |
| --- | --- | --- | --- | --- | --- | --- | --- | --- | --- | --- | --- | --- | --- | --- | --- | --- | --- | --- | --- | --- | --- | --- | --- | --- | --- | --- | --- | --- | --- | --- | --- | --- | --- |
| C[C@H](NC(=O)Cc1cc(F)cc(F)c1)C(=O)N[C@H](C(=O)OC(C)(C)C)c1ccccc1 | 98.4 | 110 | 98.2 | 101 | 111 | 91.2 | 101 | 73.8 | 91.6 | 91.3 | 80.3 | 88.9 | 84.9 | 92.2 | 80.8 | 92 | 87.4 | 76.1 | 79.3 | 76.4 | 81.9 | 75.4 | 95.3 | 85.3 | 94 | 85.2 | 101 | 92.9 | 91.4 | 92.7 | 92.6 | 79.5 | 82.8 |
| Cc1ccc(C(=O)Nc2cccc(C(F)(F)F)c2)cc1Nc1nc(-c2cccnc2)nc2c1cnn2C | 87.4 | 80.6 | 97.4 | 97.6 | 88.4 | 104 | 74 | 56.5 | 71.2 | 67.8 | 78 | 83.5 | 84.8 | 94.5 | 77.4 | 85.1 | 87.4 | 77.6 | 84.9 | 87.7 | 73.4 | 76.4 | 84.8 | 86.2 | 87.6 | 87.2 | 90.7 | 89.1 | 83.7 | 77.4 | 93.8 | 77.6 | 85.3 |
| Cc1ccc(Nc2cc(-c3cccc(N4C(=O)c5ccccc5C4=O)c3)ncn2)cc1N[S+](C)(=O)[O-] | 107 | 113 | 156 | 123 | 127 | 149 | 128 | 140 | 153 | 132 | 107 | – | – | – | – | – | – | – | – | – | – | – | – | – | – | – | – | – | – | – | – | – | – |
| COc1cc(C(=O)NC2CCN(C)CC2)ccc1Nc1ncc2c(n1)N(C1CCCC1)CCC(=O)N2C(C)C | 103 | 121 | 110 | 122 | 118 | 112 | 115 | 113 | 115 | 58.3 | 9.06 | 99.3 | 105 | 101 | 108 | 102 | 118 | 102 | 107 | 119 | 75.7 | 15.2 | 92.7 | 113 | 100 | 110 | 100 | 106 | 104 | 117 | 109 | 105 | 20.6 |
| CC1(C)SCCN([S+](=O)([O-])c2ccc(OCC#CCO)cc2)[C@H]1C(=O)NO | 121 | 108 | 102 | 101 | 124 | 126 | 115 | 112 | 99.6 | 107 | 83.7 | 105 | 88.3 | 99.4 | 95.8 | 104 | 93 | 93.9 | 87.5 | 77.5 | 77.4 | 82.4 | 96.3 | 94.8 | 103 | 90.2 | 89.7 | 98.5 | 84.1 | 94.3 | 97.3 | 95.6 | 93.3 |
| Cc1ccc([C@@H]2O[C@H](CO)[C@@H](O)[C@H](O)[C@H]2O)cc1Cc1ccc(-c2ccc(F)cc2)s1 | 122 | 138 | 122 | 129 | 127 | 129 | 119 | 127 | 142 | 122 | 85.3 | – | – | – | – | – | – | – | – | – | – | – | – | – | – | – | – | – | – | – | – | – | – |
| COCCn1c2c([n+](Cc3cnccn3)c1C)C(=O)c1ccccc1C2=O | – | – | – | – | – | – | – | – | – | – | – | 127 | 123 | 113 | 112 | 104 | 35.3 | 7.45 | 6.58 | 6.62 | 4.16 | 1.59 | – | – | – | – | – | – | – | – | – | – | – |
| Nc1ccc(C(=O)Nc2cccc(-c3nc(N4CCOCC4)c4oc5ncccc5c4n3)c2)cn1 | 122 | 118 | 135 | 121 | 115 | 122 | 128 | 98.8 | 67.7 | 74.5 | 49.3 | 118 | 123 | 129 | 104 | 118 | 110 | 115 | 108 | 82.8 | 83.4 | 91 | 115 | 124 | 107 | 113 | 110 | 119 | 91 | 84.9 | 65 | 73.7 | 61.5 |
| C[C@@H]1CC[C@@]2(CC[C@]3(C)\C(=C/C[C@@H]4[C@@]5(C)CC[C@H](O)C(C)(C)[C@@H]5CC[C@@]34C)[C@@H]2[C@H]1C)C(O)=O | 111 | 120 | 116 | 113 | 111 | 127 | 130 | 113 | 113 | 111 | 119 | 113 | 108 | 120 | 106 | 112 | 108 | 98.7 | 104 | 102 | 112 | 106 | 104 | 120 | 117 | 125 | 124 | 113 | 121 | 112 | 114 | 106 | 114 |
| NC(=O)c1cnccn1 | 105 | 120 | 147 | 133 | 140 | 140 | 143 | 141 | 145 | 126 | 148 | – | – | – | – | – | – | – | – | – | – | – | – | – | – | – | – | – | – | – | – | – | – |
| CCCN[C@H]1CCc2nc(N)sc2C1 | 105 | 102 | 104 | 116 | 95.4 | 102 | 119 | 112 | 123 | 118 | 114 | 86.8 | 84.8 | 96.6 | 89.3 | 92.6 | 90.6 | 85.3 | 96.2 | 96.7 | 90.5 | 89.3 | 83.9 | 93.1 | 104 | 98.8 | 106 | 102 | 101 | 107 | 87.1 | 109 | 82.4 |
| C/C1=C2/[N]3[Co+]456([OH])<-[N]7=C1[C@@H](CCC(N)=O)C(C)(C)/C7=C/C1=[N]->4C(=C(/C)C4=[N]->5[C@@](C)([C@H]3[C@H](CC(N)=O)[C@@]2(C)CCC(=O)NC[C@@H](C)OP(=O)([O-])O[C@H]2[C@@H](O)[C@@H](n3c[n]->6c5cc(C)c(C)cc53)O[C@@H]2CO)[C@@](C)(CC(N)=O)[C@@H]4CCC(N)=O)/[C@@](C)(CC(N)=O)[C@@H]1CCC(N)=O | 94.9 | 110 | 102 | 103 | 113 | 105 | 100 | 77.2 | 87.9 | 80.4 | 70.6 | 95.1 | 95 | 87.9 | 95.4 | 90.5 | 90.3 | 97.3 | 82.2 | 81.4 | 89 | 75.5 | 95.6 | 95.8 | 101 | 94.6 | 90.7 | 97.7 | 97.5 | 91.8 | 86.1 | 89.9 | 72.7 |
| Clc2cccc(Cl)c2\N=C1/NCCN1 | 117 | 101 | 118 | 105 | 125 | 135 | 121 | 118 | 132 | 128 | 122 | 102 | 113 | 124 | 120 | 112 | 118 | 113 | 124 | 105 | 116 | 111 | 105 | 130 | 109 | 123 | 122 | 121 | 123 | 137 | 120 | 114 | 115 |
| CC[C@H]1OC(=O)[C@H](C)[C@@H](O[C@H]2C[C@@](C)(OC)[C@@H](O)[C@H](C)O2)[C@H](C)[C@@H](O[C@@H]2O[C@H](C)C[C@H](N(C)C)[C@H]2O)[C@](C)(OC)C[C@@H](C)C(=O)[C@H](C)[C@@H](O)[C@]1(C)O | 110 | 121 | 96.8 | 105 | 89.3 | 92.2 | 92.6 | 90.9 | 84.9 | 88.3 | 101 | 103 | 101 | 99.5 | 101 | 97 | 105 | 84 | 92.9 | 81.5 | 79.2 | 81.2 | 86.3 | 87.5 | 83.1 | 92.6 | 93.8 | 87.8 | 79.7 | 80.5 | 84 | 84.4 | 83.4 |
| CCC(CCCC)COC(=O)C(\C#N)=C(\c1ccccc1)c2ccccc2 (stereo not given) | 76.5 | 102 | 84 | 117 | 101 | 101 | 98.5 | 92.8 | 107 | 98.5 | 107 | 92.6 | 91.8 | 86.2 | 101 | 101 | 93 | 92.5 | 104 | 97.8 | 109 | 105 | 87.4 | 85.8 | 84.4 | 94.6 | 94 | 91.7 | 90.4 | 91.5 | 89.1 | 87.2 | 96.2 |
| CCCCc1ccc2[nH]c(NC(=O)OC)nc2c1 | 108 | 103 | 106 | 111 | 95.3 | 37.6 | 31.9 | 33.3 | 42.8 | 37.3 | 47.7 | 102 | 109 | 120 | 110 | 99.8 | 34.2 | 26.1 | 24.4 | 25.8 | 23.8 | 24.2 | 94.2 | 96.6 | 101 | 95.3 | 101 | 37.1 | 29.1 | 27.4 | 31.6 | 34.1 | 31.8 |

From the supplement of paper PMC11451515
